{
  "source": "patent US4113946A",
  "about": "“Δ^2,3 -1,4-Morpholine-2-carboxylic acid derivatives as antibacterial agents” (Bristol-Myers Company, priority 1977, dated 1978)",
  "assay_type_in_all_cases": "cell-based",
  "key": {"[1]": {"system": "D. pneumoniae A9585", "experiment": "M.I.C. by tube dilution, D. pneumoniae A9585", "conditions": "Streptococcus pneumoniae, A9585; read-out: found to inhibit D. pneumoniae A9585 at a concentration of"}, "[2]": {"system": "S. aureus Smith A9537", "experiment": "M.I.C. by tube dilution, S. aureus Smith A9537", "conditions": "Staphylococcus aureus, SMITHA9537; read-out: found to inhibit S. aureus A9537 at a concentration of"}, "[3]": {"system": "E. coli Juhl A15119", "experiment": "M.I.C. by tube dilution, E. coli Juhl A15119", "conditions": "Escherichia coli, JUHLA15119; read-out: found to inhibit E. coli A15119 at a concentration of"}, "[4]": {"system": "St. pyrogenes", "experiment": "Inhibition of St. pyrogenes", "conditions": "read-out: found to inhibit St. pyrogenes at a concentration of"}},
  "data": [
    {"smiles": "CC1=C(C(=O)O)N2C(=O)[C@@H](N)[C@H]2CO1", "note": "(relative stereo) [BC-L61, 7β-Amino-3-methyl-Δ^3 -O-2-isocephem-4-carboxylic acid]", "values": [
      {"measurement": "MIC", "setting": "[1]", "value": "> 8", "unit": "µg/mL"},
      {"measurement": "MIC", "setting": "[2]", "value": "> 125", "unit": "µg/mL"},
      {"measurement": "MIC", "setting": "[3]", "value": "> 125", "unit": "µg/mL"},
      {"measurement": "MIC", "setting": "[4]", "value": "> 8", "unit": "µg/mL"}
    ]}
  ]
}
